# Experimental data reported in patent publication US20070185055A1, “Method for treating cachexia with retinoid ligands” (priority 2006, published 2007).
# Key:
# [1] = test system: nude mice bearing H292 xenografts (non-small cell lung cancer cells H292); assay: Cachexia in nude mice bearing H292 xenografts; format: in vivo; conditions: for body weight of the animals: s.c. H292 xenograft
# Excerpt: FIGS. 1-5 comprise charts or graphs disclosing the results of tests obtained with experimental animals that have been inoculated with a xenograft of non-small cell lung cancer cells H292 or with small cell lung cancer cells H446, and which were then orally administered the RXR agonist Compound 1 referred to above. […]
# Specifically, in the experiment shown in FIG. 1 nude mice were subcutaneously transplanted with non-small cell lung cancer cells H292. A group of the animals was given a daily oral dose of 10 mg per kilogram body weight of Compound 1 in a suitable pharmaceutically acceptable vehicle. A group of the control animals was given the vehicle only.
# In the experiment shown in FIG. 4 the right gastrocnemius muscle of the control animals and of the animals treated with Compound 1 in a daily dose of 10 mg/kg, as described in connection with FIG. 1, was weighed after the animals had been sacrificed.
# In the experiment shown in FIG. 5, the food intake of nude mice with and without H292 xenografts was evaluated. Mice with H292 xenografts had reduced appetite compared with normal control. […] Therefore, adminstration of Compound 1 reverses poor appetite in cachectic animals. […]
# [2] = test system: SCID mice transplanted with small cell lung cancer cells H446; assay: Cachexia in SCID mice bearing metastatic H446 tumors; format: in vivo; conditions: daily oral dose 3 mg/kg or 10 mg/kg, versus vehicle only (FIG. 3)
# Method: FIGS. 1-5 comprise charts or graphs disclosing the results of tests obtained with experimental animals that have been inoculated with a xenograft of non-small cell lung cancer cells H292 or with small cell lung cancer cells H446, and which were then orally administered the RXR agonist Compound 1 referred to above.
# In the experiment shown in FIG. 3, SCID mice were subcutaneously transplanted with small cell lung cancer cells H446. A first group of the animals was given a daily oral dose of 3 mg per kilogram body weight of Compound 1 in a suitable pharmaceutically acceptable vehicle, and a second group was given a daily oral dose of 10 mg per kilogram body weight in the same vehicle. A group of the control animals was given the vehicle only.
# [3] = test system: AIDS and cancer patients; conditions: cited from earlier work
# [4] = patients, J. Clin. Oncol., 20: 567 (2002)
# [5] = AIDS as well as cancer patients, literature
smiles,measurement,setting,value
CC(/C=C/[C@@H]1C[C@]1(C)c1ccc2c(c1)C(C)(C)CCC2(C)C)=C\C(=O)O [Compound 1],weight of the right gastrocnemius muscle,"[1]; H292 xenograft mice, 62 days after transplantation, daily dose 10 mg/kg, versus control (FIG. 4)",prevents muscle wasting
same,average food intake,"[1]; nude mice with H292 xenografts, daily dose 10 mg/kg, compared with normal mice (FIG. 5)",equal amount of food intake as normal mice
same,percentage of survival,"[1]; nude mice, H292 xenograft, daily oral dose 10 mg/kg, versus vehicle (FIG. 2)",significantly better survival rate
same,body weight of the animals,"[1]; nude mice, daily oral dose 10 mg/kg, versus vehicle only (FIG. 1)",significantly greater body weights
same,body weight of the animals,[2],significantly greater body weights
CCC[C@]1(c2ccc3c(c2)C(C)(C)CCC3(C)C)C[C@H]1/C=C/C(C)=C/C(=O)O [Compound 2],average food intake,"[1]; nude mice bearing H292 xenografts, daily dose 50 mg/kg, versus vehicle (FIG. 7)",significantly larger food intake
same,body weight of the animals,"[1]; nude mice, daily oral dose 50 mg/kg, versus vehicle only (FIG. 6)",significantly greater body weights
CCCCCc1cc(O)c2c(c1)OC(C)(C)[C@@H]1CCC(C)=C[C@@H]21 [Dronabinol],appetite,[3]; [4],improved appetite
same,mood and body weight improvement,[3]; [4],no effect
CC(=O)O[C@]1(C(C)=O)CC[C@H]2[C@@H]3C=C(C)C4=CC(=O)CC[C@]4(C)[C@H]3CC[C@@]21C [Megestrol acetate],body weight gain,[3]; [5],at least five pounds
same,primary body component that increased,[3]; [5],"fat, but not lean body mass"
C[C@]12COC(=O)C[C@@H]1CC[C@@H]1[C@@H]2CC[C@@]2(C)[C@H]1CC[C@]2(C)O [Oxandrolone],body weight,"[3]; patients, literature, for Oxandrolone might have represented primary edema",moderate increase of body weight
